Source: patent US12318449B2 (Rutgers, The State University of New Jersey, priority 2012, dated 2025)

What was measured:
[1] = system: C8161 human melanoma cells; test: Cell cycle analysis (propidium iodide flow cytometry); assay type: cell-based; details: for Sub G1: 8 Gy, 25 uM riluzole, average of 3 experiments
Method: Cell pellets were fixed by drop-wise addition of ice-cold 70% ethanol and incubated overnight at 4° C. Fixed cells were washed twice with ice-cold PBS and resuspended in […] PBS. […] The experiment was repeated 3 times.

[2] = system: hGRM1-positive C8161 human melanoma cells; details: riluzole for 24 hours, then ionizing radiation; PE=12%
Method: (§1) hGRM1-expressing C8161 [wild type (wt) for RAS and BRAF] and UACC903 (wt for RAS, mutated B-RAF, V600E) human melanoma cell line and hGRM1-negative melanoma cell line UACC930 (wt for RAS, mutated B-RAF, V600E), were obtained from Dr. Mary J. C. Hendrix (Children's Memorial Research Center, Chicago, IL) and Dr. Jeffrey M. Trent (Translational Genomics Research Center, Phoenix, AZ), respectively. Cells were cultured in monolayer at 37° C. in a 5% CO2 humidified incubator, in RPMI (InVitrogen) supplemented with 10% fetal bovine serum (Sigma).
(§2) Cells were trypsinized for retrieval and plated on 100-mm plates and allowed to attach overnight for 20 hours. […] Cells were irradiated by a Gamma Cell 40 Exactor (MDS Nordion) irradiator and then incubated overnight (20 hours). Drug was aspirated and culture media replaced at 20 hours. Plates were then monitored for 10 to 21 days and stained with crystal violet for visual counting. Colonies which contained more than 50 cells were scored as clonogenic survivors.
(§3) All clonogenic assays and cell cycle analyses experiments were repeated 3 times and the triplicate results are shown.

[3] = system: hGRM1-positive UACC903 human melanoma cells; details: riluzole for 24 hours, then ionizing radiation; PE=19%
Method: as §1, §2, §3

U87MG glioma cells = test: Western immunoblot for cleaved PARP; assay type: cell-based; details: riluzole 10, 25 or 50 μM for 4 days versus NT or vehicle
U118MG cell line = test: Western immunoblot for cleaved PARP; assay type: cell-based; details: experiments repeated as for U87MG
LN229 cell line = test: Western immunoblot for cleaved PARP; assay type: cell-based; details: experiments repeated as for U87MG
C8161 xenografts [4] = test: Murine xenograft model, cleaved caspase-3 immunohistochemistry; assay type: in vivo, nude mice
Method: hGRM-positive C8161 cells (1×10^6) were injected into the flanks of 6-week-old nude mice (Taconic). […] At 24, 48, and 72 hours after the second dose of irradiation, mice in each group were sacrificed and tumor samples were removed. Half of the samples were snap-frozen for further molecular studies, and the other half was fixed in formalin for histologic analysis. The antibody to activated caspase-3 was utilized to visualize apoptotic cells. The average number of apoptotic cells per tumor was calculated by counting the apoptotic cells in 10 random highpowered fields.
Cleaved caspase-3 immunohistochemistry. Immunodeficient nude mice were purchased from Taconic. C8161 cells were injected into flanks bilaterally at 10^6 cells per site. Tumor size was measured with a vernier caliper. When tumor volumes reached 6 to 10 mm^3 the mice were randomly grouped into various treatments. Each treatment group consisted of 10 mice. […] At 24, 48, and 72 hours after the second dose of irradiation, mice in each group were sacrificed and tumor samples were removed. Half of the samples were snap-frozen for further molecular studies, and the other half was fixed in formalin for histologic analysis. The antibody to activated caspase-3 was utilized to visualize apoptotic cells.

C8161 xenografts [5] = system: C8161 xenografts
Method: Immunodeficient nude mice were purchased from Taconic. C8161 cells were injected into flanks bilaterally at 10^6 cells per site.

D3-mGRM1 cells = test: Immunofluorescence for 53BP1 and γ-H2AX foci in apoptosis-deficient cells; assay type: cell-based, mouse; details: treated for various time points up to 24 hours
Source text: (§4) These treated cells were stained with γ-H2AX and 53BP1, both known to localize at sites of DNA double stranded breaks.

D3-vec cells = test: as above; assay type: cell-based, mouse; details: empty vector controls; treated for various time points up to 24 hours
Source text: as §4

LN229 cells = test: ROS measurement by flow cytometry (2′,7′-dichlorodihydrofluorescein diacetate); assay type: cell-based; details: 10 uM riluzole for various time periods versus vehicle
Method: (§5) The cells were incubated with 2′,7′-dichlorodihydrofluorescein diacetate (Sigma) for 20 min at 37 deg.

U87MG cells = test: as above; assay type: cell-based; details: 10 uM riluzole for various time periods versus vehicle
Method: as §5

glioma cells = test: γ-H2AX Western blot and γ-H2AX/53BP1 immunofluorescence; assay type: cell-based
[6] = system: C8161 hGRM1-positive human melanoma cells; details: riluzole plus irradiation (2 or 4 Gy) compared with irradiation alone
Method: Both sets of cells were irradiated at 2 or 4 Gy. Lysates were made at 24, 48, or 72 hours after irradiation. Protein lysates were prepared by washing cells with PBS, adding extraction buffer [50 mmol/L Tris, 150 mmol/L NaCl, 1 mmol/L EDTA (pH 8.0)], 1% NP40, 5% glycerol, 1 mmol/L Dithiothreitol, complete protease inhibitor cocktail (Roche), and phosphatase inhibitors I and II (Sigma). The samples were resolved in 10% gels (Bio-Rad), after which they were transferred onto nitrocellulose membranes. Membranes were blocked with 5% milk and 1% bovine serum albumin and then probed with antibodies against PARP and cleaved caspase-3. The same blot was probed with alpha-tubulin to show equal loading.
Cells were either treated with IR at 2 Gy (2) or 4 GY (4) or not treated (0). Lysates were made immediately after IR or at 24 hours after IR and probed with anti-PARP and anticleaved PARP antibodies to assess apoptotic cells. The same blot was probed with a-tubulin to show equal loading.

In the case of `C=C1C[C@@H]2COC(=O)[C@]2(Cc2ccc3ccccc3c2)C1` [BAY 36-7620], the G2/M synchronization ([1]; treatment of C8161 cells with the compound) is reported as “no G2/M synchronization”.
With `Nc1nc2ccc(OC(F)(F)F)cc2s1` [Riluzole, riluzole] the “dose-modifying factor (DMF)” value [2] was 1.48, the “dose-modifying factor (DMF)” value [3] was 1.30 and the “Sub G1” value ([1]; Radiation followed by Riluzole) was 24.91. For the same compound, the “Sub G1” value ([1]; Riluzole followed by Radiation) was 3.59, the G2/M fraction ([1]; cells treated with riluzole prior to irradiation) was “clear spike in the G2/M fraction” and the G2/M fraction ([1]; reverse sequence (irradiation before riluzole)) was “no such effect”. The “levels of cleaved PARP” value (U87MG glioma cells) was “higher levels of cleaved PARP”, the “levels of cleaved PARP” value (U118MG cell line) was “identical results” and the “levels of cleaved PARP” value (LN229 cell line) was “identical results”. For the same compound, the “number of apoptotic tumor cells (immunohistochemistry)” value (C8161 xenografts [4]; riluzole 10 mg/kg oral gavage plus 2 x 4 Gy irradiation versus irradiation alone or control groups, P<0.001) was “significant increase”, the “number of apoptotic tumor cells (immunohistochemistry)” value (C8161 xenografts [4]; riluzole plus irradiation versus riluzole alone, 24- and 48-hour time points, P<0.01) was “significant difference” and the “effect of the combination on growth of xenografts” value (C8161 xenografts [5]; riluzole (10 mg/kg) plus IR, 25 days of treatment) was “at least an additive effect”. For the same compound, the “DNA damage as measured by foci of gH2AX on immunohistochemistry” value (C8161 xenografts [5]; xenograft harvests, riluzole plus irradiation) was “markedly enhanced DNA damage”, the “53BP1 and γ-H2AX foci (DNA double stranded breaks)” value (D3-mGRM1 cells) was “induction of clear nuclear 53BP1 and γ-H2AX foci” and the “53BP1 and γ-H2AX foci (DNA double stranded breaks)” value (D3-vec cells) was “not vector controls”. The “ROS (oxidation of fluorochrome fluorescence)” value (LN229 cells) was “enhanced ROS”, the “ROS (oxidation of fluorochrome fluorescence)” value (U87MG cells) was “enhanced ROS” and the “co-localization of γ-H2AX and 53BP1 (immunofluorescence)” value (glioma cells) was “Co-localization was demonstrated”. The “γ-H2AX Western blot (DNA damage)” value (glioma cells; cell lysates) was “caused DNA damage” and the “levels of cleaved PARP” value [6] was “further augmented levels of cleaved PARP”.
